Patent US20020169111A1, “Reversal of multidrug resistance in human colon carcinoma cells” (American Cyanamid Comany, priority 1998, published 2002)

Test system: S1-M1-3.2 cells
Conditions: for Toxicity (>20%): compound alone, concentration that causes greater than 20% cell death of S1-M1-3.2 cells; for IC50: read-out: IC50 (μM), resensitizing S1-M1-3.2 cells to mitoxantrone, with 3.2 μM mitoxantrone, 50% cancer cell death
Protocol: One of the first reported molecules with reversing activity was verapamil, a calcium channel blocker. […] Cells were plated into 96-well dishes (100 μl/well) in growth medium supplemented with 5% FBS. […] Reversal agents were tested from 0.1-80 μM (triplicate points per dose). In parallel wells, cells were grown in the presence of the reversal agent alone.
The Difference Score is the difference in the percentage of cells surviving when the drug was given alone minus the percentage of cells surviving when the drug was given along with the antitumor agent.
Cell survival was estimated using the Sulforhodamine (SRB) assay.

Q: For `CC(C)C[C@@H]1c2[nH]c3ccccc3c2C[C@H]2C(=O)N3CCC[C@H]3C(=O)N12` [Example 14a, (5aS,12R,14aS)-12-isobutyl-1,2,3,5a,6,11,12,14a-octahydro-5H,14H-pyrrolo[1″,2″:4′,5′]pyrazino[2′,1′:6,1]pyrido[3,4-b]indole-5,14-dione], which “Toxicity (>20%)” value is on record?
A: 80.0 µM

Q: What about the IC50 of the same compound?
A: 80 µM

Q: `CC(C)C[C@H]1c2[nH]c3ccccc3c2C[C@H]2C(=O)N3CCC[C@H]3C(=O)N21` [Example 14b, (5aS,12S,14aS)-12-isobutyl-1,2,3,5a,6,11,12,14a-octahydro-5H,14H-pyrrolo[1″,2″:4′,5′]pyrazino[2′,1′:6,1]pyrido[3,4-b]indole-5,14-dione] was tested. Which “Toxicity (>20%)” value did it give?
A: 35.0 µM

Q: What about the IC50 of the same compound?
A: 1 µM

Q: `CC(C)C[C@@H]1c2[nH]c3ccccc3c2C[C@@H]2C(=O)N3CCC[C@H]3C(=O)N21` [Example 15a, (5aR,12R,14aS)-12-isobutyl-1,2,3,5a,6,11,12,14a-octahydro-5H,14H-pyrrolo[1″,2″:4′,5′]pyrazino[2′,1′:6,1]pyrido[3,4-b]indole-5,14-dione] was tested. Which “Toxicity (>20%)” value did it give?
A: >80.0 µM

Q: What about the IC50 of the same compound?
A: 35 µM

Q: Which results are given for `CC(C)C[C@H]1c2[nH]c3ccccc3c2C[C@@H]2C(=O)N3CCC[C@H]3C(=O)N21` [Example 15b, (5aR,12S,14aS)-12-isobutyl-1,2,3,5a,6,11,12,14a-octahydro-5H,14H-pyrrolo[1″,2″:4′,5′]pyrazino[2′,1′:6,1]pyrido[3,4-b]indole-5,14-dione]?
A: Toxicity (>20%): >80.0 µM; IC50: 15 µM

Q: What does the source list for `CC(C)C[C@@H]1c2[nH]c3ccccc3c2C[C@H]2C(=O)N3CCC[C@@H]3C(=O)N12` [Example 16a, (5aS,12R,14aR)-12-isobutyl-1,2,3,5a,6,11,12,14a-octahydro-5H,14H-pyrrolo[1″,2″:4′,5′]pyrazino[2′,1′:6,1]pyrido[3,4-b]indole-5,14-dione]?
A: Toxicity (>20%): >80.0 µM; IC50: > 80 µM

Q: Which results are given for `CC(C)C[C@H]1c2[nH]c3ccccc3c2C[C@H]2C(=O)N3CCC[C@@H]3C(=O)N21` [Example 16b, (5aS,12S,14aR)-12-isobutyl-1,2,3,5a,6,11,12,14a-octahydro-5H,14H-pyrrolo[1″,2″:4′,5′]pyrazino[2′,1′:6,1]pyrido[3,4-b]indole-5,14-dione]?
A: Toxicity (>20%): >80.0 µM; IC50: 5.5 µM

Q: What does the source list for `CC(C)C[C@@H]1c2[nH]c3ccccc3c2C[C@@H]2C(=O)N3CCC[C@@H]3C(=O)N21` [Example 17a, (5aR,12R,14aR)-12-isobutyl-1,2,3,5a,6,11,12,14a-octahydro-5H,14H-pyrrolo[1″,2″:4′,5′]pyrazino[2′,1′:6,1]pyrido[3,4-b]indole-5,14-dione]?
A: Toxicity (>20%): 50.0 µM; IC50: 35 µM

Q: How did the “Toxicity (>20%)” value turn out when `CC(C)C[C@H]1c2[nH]c3ccccc3c2C[C@@H]2C(=O)N3CCC[C@@H]3C(=O)N21` [Example 17b, (5aR,12S,14aR)-12-isobutyl-1,2,3,5a,6,11,12,14a-octahydro-5H,14H-pyrrolo[1″,2″:4′,5′]pyrazino[2′,1′:6,1]pyrido[3,4-b]indole-5,14-dione] was run?
A: >80.0 µM

Q: What about the IC50 of the same compound?
A: 3.5 µM

Q: `CC(C)CC1c2[nH]c3ccccc3c2CC2C(=O)N3CCCCC3C(=O)N21` [Example 18a, (6aS,13R,15aS)-13-isobutyl-1,2,3,4,6a,7,12,13,15a-nonahydro-6H,15H-pyrido[1″,2″:4′,5′]pyrazino[2′,1′:6,1]pyrido[3,4-b]indole-6H,15H-dione] was tested. Which “Toxicity (>20%)” value did it give?
A: 15.0 µM

Q: What about the IC50 of the same compound?
A: 50 µM

Q: How did the “Toxicity (>20%)” value turn out when `CC(C)CC1c2[nH]c3ccccc3c2CC2C(=O)N3CCCCC3C(=O)N21` [Example 18b, (6aS,13S,15aS)-13-isobutyl-1,2,3,4,6a,7,12,13,15a-nonahydro-6H,15H-pyrido[1″,2″:4′,5′]pyrazino[2′,1′:6,1]pyrido[3,4-b]indole-6H,15H-dione] was run?
A: 25.0 µM

Q: What about the IC50 of the same compound?
A: 1.5 µM

Q: Which “Toxicity (>20%)” value does the source give for `CC(C)CC1c2[nH]c3ccccc3c2CC2C(=O)N3CCCCC3C(=O)N21` [Example 19a, (6aR,13R,15aS)-13-isobutyl-1,2,3,4,6a,7,12,13,15a-nonahydro-6H,15H-pyrido[1″,2″:4′,5′]pyrazino[2′,1′:6,1]pyrido[3,4-b]indole-6H,15H-dione] here?
A: 50.0 µM

Q: And the IC50?
A: 11 µM

Q: With `CC(C)CC1c2[nH]c3ccccc3c2CC2C(=O)N3CCCCC3C(=O)N21` [Example 19b, (6aR,13S,15aS-13-isobutyl-1,2,3,4,6a,7,12,13,15a-nonahydro-6H,15H-pyrido[1″,2″:4′,5′]pyrazino[2′,1′:6,1]pyrido[3,4-b]indole-6H,15H-dione] as the compound, how does the “Toxicity (>20%)” value read?
A: >80.0 µM

Q: And the IC50?
A: 4 µM

Q: Which “Toxicity (>20%)” value does the source give for `CC(C)CC1c2[nH]c3ccccc3c2CC2C(=O)N3CCCCC3C(=O)N21` [Example 20a, (6aS,13R,15aR)-13-isobutyl-1,2,3,4,6a,7,12,13,15a-nonahydro-6H,15H-pyrido[1″,2″:4′,5′]pyrazino[2′,1′:6,1]pyrido[3,4-b]indole-6H,15H-dione] here?
A: 80.0 µM

Q: What about the IC50 of the same compound?
A: 30 µM

Q: Which results are given for `CC(C)CC1c2[nH]c3ccccc3c2CC2C(=O)N3CCCCC3C(=O)N21` [Example 20b, (6aS,13S,15aR)-13-isobutyl-1,2,3,4,6a,7,12,13,15a-nonahydro-6H,15H-pyrido[1″,2″:4′,5′]pyrazino[2′,1′:6,1]pyrido[3,4-b]indole-6H,15H-dione]?
A: Toxicity (>20%): 50.0 µM; IC50: 2 µM

Q: How did the “Toxicity (>20%)” value turn out when `CC(C)CC1c2[nH]c3ccccc3c2CC2C(=O)N3CCCCC3C(=O)N21` [Example 21a, (6aR,13R,15aR)-13-isobutyl-1,2,3,4,6a,7,12,13,15a-nonahydro-6H,15H-pyrido[1″,2″:4′,5′]pyrazino[2′,1′:6,1]pyrido[3,4-b]indole-6H,15H-dione] was run?
A: 10.0 µM

Q: And the IC50?
A: 10.5 µM

Q: What does the source list for `CC(C)CC1c2[nH]c3ccccc3c2CC2C(=O)N3CCCCC3C(=O)N21` [Example 21b, (6aR,13S,15aR)-13-isobutyl-1,2,3,4,6a,7,12,13,15a-nonahydro-6H,15H-pyrido[1″,2″:4′,5′]pyrazino[2′,1′:6,1]pyrido[3,4-b]indole-6H,15H-dione]?
A: Toxicity (>20%): >80.0 µM; IC50: 6 µM

Q: Which results are given for `CC(C)C[C@@H]1c2[nH]c3ccccc3c2C[C@H]2C(=O)N3CC[C@H]3C(=O)N12` [Example 22a, (4aS,11R,13aS)-11-isobutyl-1,4a,5,10,11,13a-hexahydro-4H-azeto[1″,2″:4′,5′]pyrazino[2′,1′:6,1]pyrido[3,4-b]indole-4,13(2H)-dione]?
A: Toxicity (>20%): 80.0 µM; IC50: 15 µM

Q: What does the source list for `CC(C)C[C@H]1c2[nH]c3ccccc3c2C[C@H]2C(=O)N3CC[C@H]3C(=O)N21` [Example 22b, (4aS,11S,13aS)-11-isobutyl-1,4a,5,10,11,13a-hexahydro-4H-azeto[1″,2″:4′,5′]pyrazino[2′,1′:6,1]pyrido[3,4-b]indole-4,13(2H)-dione]?
A: Toxicity (>20%): >80.0 µM; IC50: 2.5 µM

Q: How did the “Toxicity (>20%)” value turn out when `O=C1[C@@H]2Cc3c([nH]c4ccccc34)[C@@H](CCCCCc3ccccc3)N2C(=O)[C@@H]2CCCN12` [Example 23a, (5aS,12R,14aS)-12-(5-phenylpentyl)-1,2,3,5a,6,11,12,14a-octahydro-5H,14H-pyrrolo[1″,2″:4′,5′]pyrazino[2′,1′:6,1]pyrido[3,4-b]indole-5,14-dione] was run?
A: 7.5 µM

Q: And the IC50?
A: 0.3 µM

Q: Which “Toxicity (>20%)” value does the source give for `O=C1[C@@H]2Cc3c([nH]c4ccccc34)[C@H](CCCCCc3ccccc3)N2C(=O)[C@@H]2CCCN12` [Example 23b, (5aS,12S,14aS)-12-(5-phenylpentyl)-1,2,3,5a,6,11,12,14a-octahydro-5H,14H-pyrrolo[1″,2″:4′,5′]pyrazino[2′,1′:6,1]pyrido[3,4-b]indole-5,14-dione] here?
A: >80 µM

Q: What about the IC50 of the same compound?
A: 3 µM

Q: How did the “Toxicity (>20%)” value turn out when `O=C(NCCC[C@@H]1c2[nH]c3ccccc3c2C[C@H]2C(=O)N3CCC[C@H]3C(=O)N12)OCc1ccccc1` [Example 24a, Benzyl 3-[(5aS,12R,14aS)-5,14-dioxo-2,3,5a,6,11,12,14,14a-octahydro-1H,5H-pyrrolo[1″,2″:4′,5′]pyrazino[2′,1′:6,1]pyrido[3,4-b]indol-12-yl]propylcarbamate] was run?
A: 50 µM

Q: And the IC50?
A: 10 µM

Q: With `O=C(NCCC[C@H]1c2[nH]c3ccccc3c2C[C@H]2C(=O)N3CCC[C@H]3C(=O)N21)OCc1ccccc1` [Example 24b, Benzyl 3-[(5aS,12S,14aS)-5,14-dioxo-2,3,5a,6,11,12,14,14a-octahydro-1H,5H-pyrrolo[1″,2″:4′,5′]pyrazino[2′,1′:6,1]pyrido[3,4-b]indol-12-yl]propylcarbamate] as the compound, how does the “Toxicity (>20%)” value read?
A: 20 µM

Q: And the IC50?
A: 2 µM

Q: Which “Toxicity (>20%)” value does the source give for `O=C1[C@@H]2Cc3c([nH]c4ccccc34)CN2C(=O)[C@@H]2CCCN12` [Example 25, (5aS,14aS)-1,2,3,5a,6,11,12,14a-octahydro-5H,14H-pyrrolo[1″,2″:4′,5′]pyrazino[2′,1′:6,1]pyrido[3,4-b]indole-5,14-dione] here?
A: >80 µM

Q: What about the IC50 of the same compound?
A: 15 µM

Q: What does the source list for `C[C@H]1c2[nH]c3ccccc3c2C[C@H]2C(=O)N3CCC[C@H]3C(=O)N21` [Example 26, (5aS,12S,14aS)-12-methyl-1,2,3,5a,6,11,12,14a-octahydro-5H,14H-pyrrolo[1″,2″:4′,5′]pyrazino[2′,1′:6,1]pyrido[3,4-b]indole-5,14-dione]?
A: Toxicity (>20%): >80.0 µM; IC50: 7 µM

Q: With `CC(C)=C[C@H]1c2[nH]c3ccccc3c2C[C@H]2C(=O)N3CCC[C@H]3C(=O)N21` [Example 27] as the compound, how does the “Toxicity (>20%)” value read?
A: >80 µM

Q: What about the IC50 of the same compound?
A: 2.5 µM

Q: Which “Toxicity (>20%)” value does the source give for `CCCCCCCCC[C@H]1c2[nH]c3ccccc3c2C[C@H]2C(=O)N3CCC[C@H]3C(=O)N21` [Example 28, (5aS,12S,14aS)-12-nonyl-1,2,3,5a,6,11,12,14a-octahydro-5H,14H-pyrrolo[1″,2″:4′,5′]pyrazino[2′,1′:6,1]pyrido[3,4-b]Indole-5,14-dione] here?
A: 7.0 µM

Q: What about the IC50 of the same compound?
A: 0.25 µM
